{
  "source": "patent US20220387468A1",
  "about": "“METHODS OF TREATING CANCER” (ASTRAZENECA AB, priority 2019, published 2022)",
  "key": {"[1]": {"test_system": "pancreatic cancer cell lines (SLFN11-deficient or SLFN11-proficient)", "assay": "Pancreatic cell line panel, 6x6 concentration matrix, live-dead SyTox green assay, Loewe synergy", "format": "cell-based", "description": "SLFN11 RNA seq data (log 2 RPKM values) were downloaded from cancer cell line encyclopedia (CCLE) (Barretina J. et al., Nature, 2012; 483: 603-607) and drug response data (log(IC50) and area under the dose-response curve (AUCs)) from drug sensitivity in cancer database (Yang W et al., Nucleic Acids Res, 2013; 41: […]-61). Cell lines with CCLE RNA seq log 2 RPKM values below 1 were defined as SLFN11-deficient and cell lines with log 2 RPKM values above 1 as SLFN11-proficient. Nineteen pancreatic cell lines in 384-well plates were dosed with increasing concentrations of adavosertib and gemcitabine in a 6×6 concentration matrix using an Echo 555 (LabCyte). The dose range was 0-3 μM for adavosertib, and 0-0.3 μM for gemcitabine; in both cases dilutions 1:3 from the top dose were performed. Five days following continuous treatment, cell viability was determined by live-dead SyTox green assay (Life Technologies, Carlsbad, Calif., USA). Synergy was analyzed in Genedata screener software using the Loewe dose-additivity model as described above."}, "[2]": {"test_system": "DU145 isogenic cells (WT and SLFN11 KO)", "format": "cell-based", "details": "SLFN11 KO cells compared to wild type DU145 cells; 72 hours; FIG. 2D", "description": "For cell survival experiment in 96 well plate, cells were seeded in 96-well plates, following compound dosing using a HP dispenser. 72 hours later, cell viability was determined with end-point CellTiter-Glo luminescent assays (Promega). Percentage growth was calculated using the equation (T−T0)/(C−T0)×100, where T=compound-treated cells; T0=cells at 0 h time point and C=control cells. Dose response curves were plotted in GraphPad prism."}},
  "data": [
    {"smiles": "C=CCn1c(=O)c2cnc(Nc3ccc(N4CCN(C)CC4)cc3)nc2n1-c1cccc(C(C)(C)O)n1", "note": "[adavosertib]", "values": [
      {"measurement": "response (log IC50) of SLFN11-deficient versus SLFN11-proficient cell lines", "setting": "[1]; adavosertib monotherapy, FIG. 3B", "result": "same response"}
    ]},
    {"smiles": "CC[C@@]1(O)C(=O)OCc2c1cc1n(c2=O)Cc2cc3ccccc3nc2-1", "note": "[camptothecin]", "values": [
      {"measurement": "sensitivity to DDA monotherapy (survival curves)", "setting": "[2]", "result": "resistant"}
    ]},
    {"smiles": "N.N.[Cl][Pt][Cl]", "note": "[cisplatin]", "values": [
      {"measurement": "sensitivity to DDA monotherapy (survival curves)", "setting": "[2]", "result": "resistant"}
    ]},
    {"smiles": "COc1cc([C@@H]2c3cc4c(cc3[C@@H](O[C@@H]3O[C@@H]5CO[C@@H](C)O[C@H]5[C@H](O)[C@H]3O)[C@H]3COC(=O)[C@H]23)OCO4)cc(OC)c1O", "note": "[etoposide]", "values": [
      {"measurement": "sensitivity to DDA monotherapy (survival curves)", "setting": "[2]", "result": "resistant"}
    ]},
    {"smiles": "Nc1ccn([C@@H]2O[C@H](CO)[C@@H](O)C2(F)F)c(=O)n1", "note": "[gemcitabine]", "values": [
      {"measurement": "sensitivity to DDA monotherapy (survival curves)", "setting": "[2]", "result": "resistant"},
      {"measurement": "sensitivity (log IC50) of SLFN11-deficient versus SLFN11-proficient cell lines, fold less sensitive", "setting": "[1]; gemcitabine monotherapy, on average, FIG. 3A", "result": 100, "unit": "times"}
    ]},
    {"smiles": "NC(=O)NO", "note": "[hydroxyurea]", "values": [
      {"measurement": "sensitivity to DDA monotherapy (survival curves)", "setting": "[2]", "result": "resistant"}
    ]}
  ]
}
